# Test results reported in patent publication US8722849B2, “Polypeptides” (Novo Nordisk A/S, priority 2011, dated 2014).
# Read-outs that look alike come from different tables or passages of the source. Starred links: 1 amine or outer side, 2 acyl side, 3 side chain; linkers in the order of their positions; H or OH if unused. Positions of bridges follow the written chain, without caps; N, C: chain ends. Non-standard residues stand in square brackets, D forms with d. Residues, ends and D or L forms follow the SMILES beside them. *: point of attachment. C20 diacid = O=C(O)CCCCCCCCCCCCCCCCCCC(=O)*; γGlu = O=C(O)[C@H](CCC(=O)[*:2])N[*:1]; AEEA = NCCOCCOCC(=O)O
# How the values were obtained:
# [1] = molecular target: T1, human amylin receptor (amylin 3(a) receptor: human calcitonin receptor + RAMP-3) (Homo sapiens, UniProt O60896+P30988); test: Assay (II)a functional CRE-luciferase assay, human amylin receptor; assay type: cell-based
# T1 construct: expressed in transfected cells; host or cells: BHK570
# T1 sequence (P30988 25-474): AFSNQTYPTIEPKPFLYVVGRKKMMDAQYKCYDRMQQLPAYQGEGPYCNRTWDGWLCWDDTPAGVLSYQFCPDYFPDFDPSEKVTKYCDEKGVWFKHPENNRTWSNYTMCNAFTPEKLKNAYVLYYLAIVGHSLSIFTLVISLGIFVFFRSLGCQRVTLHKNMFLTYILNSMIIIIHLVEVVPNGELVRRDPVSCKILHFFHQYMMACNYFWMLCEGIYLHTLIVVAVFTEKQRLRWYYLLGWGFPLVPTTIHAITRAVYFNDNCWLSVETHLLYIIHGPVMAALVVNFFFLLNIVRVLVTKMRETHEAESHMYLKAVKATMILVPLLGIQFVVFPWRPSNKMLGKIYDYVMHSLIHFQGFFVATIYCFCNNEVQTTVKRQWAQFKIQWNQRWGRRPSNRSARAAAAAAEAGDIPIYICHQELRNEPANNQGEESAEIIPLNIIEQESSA
# T1 sequence (O60896 24-148 partner): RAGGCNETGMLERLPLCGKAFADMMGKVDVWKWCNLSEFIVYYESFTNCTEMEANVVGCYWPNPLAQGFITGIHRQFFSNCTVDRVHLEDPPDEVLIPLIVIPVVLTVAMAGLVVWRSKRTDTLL
# [2] = molecular target: T2, human calcitonin receptor (Homo sapiens, UniProt P30988); test: Assay (II)a functional CRE-luciferase assay, human calcitonin receptor; assay type: cell-based
# T2 construct: expressed in transfected cells; host or cells: BHK570
# T2 sequence (P30988 25-474): T1 sequence (P30988 25-474)
# [3] = molecular target: T3, rat amylin 3(a) receptor (rat calcitonin(a) receptor + rat RAMP3) (Rattus norvegicus, UniProt P32214+Q9JJ73); test: Assay (II)b functional cAMP FlashPlate assay, rat amylin receptor; assay type: cell-based; conditions: Table 11
# T3 construct: expressed in transfected cells; host or cells: BHK tk'ts 13
# T3 sequence (P32214 25-479 isoform P32214-2 limits assumed): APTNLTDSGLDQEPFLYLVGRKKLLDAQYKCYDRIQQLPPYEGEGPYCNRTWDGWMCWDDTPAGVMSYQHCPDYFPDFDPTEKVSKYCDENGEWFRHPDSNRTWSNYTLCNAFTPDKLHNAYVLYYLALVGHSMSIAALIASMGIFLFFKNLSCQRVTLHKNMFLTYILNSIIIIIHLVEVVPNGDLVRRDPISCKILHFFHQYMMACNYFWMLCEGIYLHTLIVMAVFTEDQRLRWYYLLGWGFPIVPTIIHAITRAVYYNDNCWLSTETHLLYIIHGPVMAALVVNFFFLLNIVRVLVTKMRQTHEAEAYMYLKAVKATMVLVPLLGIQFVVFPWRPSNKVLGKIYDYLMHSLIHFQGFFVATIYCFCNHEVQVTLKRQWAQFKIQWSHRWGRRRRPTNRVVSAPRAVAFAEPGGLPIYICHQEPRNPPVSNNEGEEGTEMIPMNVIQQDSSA
# T3 sequence (Q9JJ73 23-147 partner): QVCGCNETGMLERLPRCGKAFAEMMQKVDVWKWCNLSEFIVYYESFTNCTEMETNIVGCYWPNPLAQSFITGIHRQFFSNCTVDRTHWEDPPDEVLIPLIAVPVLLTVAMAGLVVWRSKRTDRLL
# From the text: (§1) Assay (II)b—Rat Calcitonin and Rat Amylin Receptor Assays
# (§2) Activation of calcitonin and amylin (coexpression of calcitonin receptor and receptor activity modifying proteins (RAMP)) receptors lead to increased intracellular concentrations of cAMP. In order to quantify the cAMP levels in transiently transfected cells the Adenylyl Cyclase Activation FlashPlate® Assay from […] was used. The basic principle of the FlashPlate® Assay is a competition between radioactive and non-radioactive cAMP generated by the cells for a fixed number of binding sites.
# (§3) Construction of rat calcitonin(a)—and rat amylin 3(a)-receptor cells.
# (§4) BHK tk'ts 13 cells were transiently transfected with either rat calcitonin (a) receptor or amylin 3 (a) receptor (rat calcitonin(a) receptor+ rat RAMP3) using FuGENE® 6 (ROCHE), according to the manufacturers recommendations.
# (§5) 24 hours after transient transfection the cells (rat calcitonin(a)—or rat amylin 3(a)—receptor cells) were added (100.000 cells/well) to the 96 well FlashPlates® with samples or standard in FlashPlate stimulation buffer with IBMX and incubated for 30 min. Detection mix was created according to manufacturers protocol and scintillation measured after 3 h of incubation on TopCounter™ (Packard).
# [4] = molecular target: T4, rat calcitonin (a) receptor (Rattus norvegicus, UniProt P32214); test: Assay (II)b functional cAMP FlashPlate assay, rat calcitonin receptor; assay type: cell-based; conditions: Table 11; read-out: CTa receptor rat EC50
# T4 construct: expressed in transfected cells; host or cells: BHK tk'ts 13
# T4 sequence (P32214 25-479 isoform P32214-2 limits assumed): T3 sequence (P32214 25-479 isoform P32214-2 limits assumed)
# From the text: as §1, §2, §3, §4, §5
# [5] = Assay (IV) determination of solubility; assay type: physicochemical
# In short: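 Polypeptide in water (~500 nmol/ml stock) was mixed 1:1 with 100 mM buffers from pH 3.0 to 8.0 (glycylglycine pH 3.0–5.0; bistrispropane pH 6.0–8.0). After 18 hours at room temperature, samples were centrifuged and the polypeptide remaining in solution was quantified by HPLC.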
# [6] = Table 2, BHK amylin 3(a)-receptor/CRE-luc cells
# [7] = Table 7, human calcitonin (CTa) receptor
structure (smiles),measurement,setting,value
"CC(C)C[C@H](NC(=O)[C@H](CCCNC(=N)N)NC(=O)[C@H](CCC(N)=O)NC(=O)[C@@H](NC(=O)[C@H](C)NC(=O)[C@@H]1CSSC[C@H](NC(=O)[C@H](Cc2c[nH]cn2)NC(=O)[C@H](Cc2c[nH]cn2)NC(=O)[C@H](Cc2c[nH]cn2)NC(=O)CC[C@H](NC(=O)CCCCCCCCCCCCCCCCCCC(=O)O)C(=O)O)C(=O)N[C@@H](CC(N)=O)C(=O)N[C@@H]([C@@H](C)O)C(=O)N[C@@H](C)C(=O)N[C@@H]([C@@H](C)O)C(=O)N1)[C@@H](C)O)C(=O)N[C@@H](C)C(=O)N[C@@H](CCC(=O)O)C(=O)N[C@@H](Cc1ccccc1)C(=O)N[C@@H](CC(C)C)C(=O)N[C@@H](Cc1c[nH]cn1)C(=O)N[C@@H](Cc1c[nH]cn1)C(=O)N[C@@H](CO)C(=O)N[C@@H](CO)C(=O)N[C@@H](CC(N)=O)C(=O)N[C@@H](CC(N)=O)C(=O)N[C@@H](Cc1ccccc1)C(=O)NCC(=O)N[C@@H](C)C(=O)N1CCC[C@H]1C(=O)N[C@@H](CC(C)C)C(=O)N[C@@H](CO)C(=O)N[C@@H](CO)C(=O)N[C@H](C(=O)N[C@@H](CC(N)=O)C(=O)N[C@H](C(=O)NCC(=O)N[C@@H](CO)C(=O)N[C@@H](CC(N)=O)C(=O)N[C@H](C(=O)N[C@@H](Cc1ccc(O)cc1)C(N)=O)[C@@H](C)O)C(C)C)[C@@H](C)O [Example 19, N-alpha-[(S)-4-Carboxy-4-(19-carboxynonadecanoylamino)butyryl]-His-His-[His1,Glu14,His17,Ala25,Pro26,Ser28,Ser29]-pramlintide] ({C20 diacid-γGlu}-HHHCNTATCATQRLAEFLHHSSNNFGAPLSSTNVGSNTY-NH2; disulfide 4-9 (inferred); C-terminus assumed)",EC50,[1]; [6],0.105 nM
same,EC50,[2]; [7],0.31 nM
same,EC50,[3],0.132 nM
same,EC50,[4],0.824 nM
same,solubility at 18 h,"[5]; bistrispropane buffer, pH 6, pH 6.0, read-out: Solubility pH 6.0",175 µM
same,solubility at 18 h,"[5]; bistrispropane buffer, pH 6.5, pH 6.5, read-out: Solubility pH 6.5",35 µM
same,solubility at 18 h,"[5]; bistrispropane buffer, pH 7, pH 7.0, read-out: Solubility pH 7.0",6 µM
same,solubility at 18 h,"[5]; bistrispropane buffer, pH 7.5, pH 7.5, read-out: Solubility pH 7.5",61 µM
same,solubility at 18 h,"[5]; bistrispropane buffer, pH 8, pH 8.0, read-out: Solubility pH 8.0",158 µM
same,solubility at 18 h,"[5]; glycylglycine buffer, pH 3, pH 3.0, read-out: Solubility pH 3.0",> 200 µM
same,solubility at 18 h,"[5]; glycylglycine buffer, pH 4, pH 4.0, 18 hours at room temperature, Table 2, read-out: Solubility pH 4.0",> 200 µM
same,solubility at 18 h,"[5]; glycylglycine buffer, pH 4, pH 4.0, read-out: Solubility pH 4.0",> 200 µM
same,solubility at 18 h,"[5]; glycylglycine buffer, pH 5, pH 5.0, read-out: Solubility pH 5.0",155 µM
"CC[C@H](C)[C@H](NC(=O)[C@@H]1CCCN1C(=O)CNC(=O)[C@H](Cc1ccccc1)NC(=O)[C@H](CC(N)=O)NC(=O)[C@H](CC(N)=O)NC(=O)[C@H](CO)NC(=O)[C@H](CO)NC(=O)[C@H](CCCNC(=N)N)NC(=O)[C@H](Cc1cnc[nH]1)NC(=O)[C@H](CC(C)C)NC(=O)[C@H](Cc1ccccc1)NC(=O)[C@H](CCC(=O)O)NC(=O)[C@H](C)NC(=O)[C@H](CC(C)C)NC(=O)[C@H](CCCNC(=N)N)NC(=O)[C@H](CCC(N)=O)NC(=O)[C@@H](NC(=O)[C@H](C)NC(=O)[C@@H]1CSSC[C@H](NC(=O)[C@H](CCCCN)NC(=O)[C@@H](CCCNC(=N)N)NC(=O)[C@@H](CCCNC(=N)N)NC(=O)COCCOCCNC(=O)COCCOCCNC(=O)CC[C@H](NC(=O)CCCCCCCCCCCCCCCCCCC(=O)O)C(=O)O)C(=O)N[C@@H](CC(N)=O)C(=O)N[C@@H]([C@@H](C)O)C(=O)N[C@@H](C)C(=O)N[C@@H]([C@@H](C)O)C(=O)N1)[C@@H](C)O)C(=O)N[C@@H](CC(C)C)C(=O)N1CCC[C@H]1C(=O)N1CCC[C@H]1C(=O)N[C@H](C(=O)N[C@@H](CC(N)=O)C(=O)N[C@H](C(=O)NCC(=O)N[C@@H](CO)C(=O)N[C@@H](CC(N)=O)C(=O)N[C@H](C(=O)N[C@@H](Cc1ccc(O)cc1)C(N)=O)[C@@H](C)O)C(C)C)[C@@H](C)O [Example 37, N-alpha-[2-(2-{2-[2-(2-{2-[(S)-4-Carboxy-4-(19-carboxyheptadecanoylamino)butyrylamino]ethoxy}ethoxy)acetylamino]ethoxy}ethoxy)acetyl]-D-Arg-D-Arg-[Glu14,His17,Arg18]-pramlintide] ({C20 diacid-γGlu-AEEA-AEEA}-[dR][dR]KCNTATCATQRLAEFLHRSSNNFGPILPPTNVGSNTY-NH2; disulfide 4-9)",EC50,[1]; [6],0.0832 nM
same,EC50,"[1]; Table 3, BHK amylin 3(a)-receptor/CRE-luc cells",0.0832 nM
same,EC50,[1]; Table 4,0.0832 nM
same,EC50,[1]; Table 5,0.0832 nM
same,EC50,"[1]; Table 6, human amylin receptor",0.0832 nM
same,EC50,"[1]; Table 7, human amylin receptor",0.0832 nM
same,EC50,[1]; Table 8,0.0832 nM
same,EC50,[1]; Table 11,0.0832 nM
same,EC50,[2]; [7],0.642 nM
same,EC50,"[2]; Table 11, read-out: CTa receptor human EC50",0.642 nM
same,EC50,[3],0.132 nM
same,EC50,[4],1.89 nM
same,solubility,"[5]; pH 3, pH 3.0, read-out: Solubility pH 3.0",> 200 µM
same,solubility,"[5]; pH 4, pH 4.0, 18 hours at room temperature, Table 2, read-out: Solubility pH 4.0",> 200 µM
same,solubility,"[5]; pH 4, pH 4.0, read-out: Solubility pH 4.0",> 200 µM
same,solubility,"[5]; pH 5, pH 5.0, read-out: Solubility pH 5.0",> 200 µM
same,solubility,"[5]; pH 6, pH 6.0, read-out: Solubility pH 6.0",> 200 µM
same,solubility at 18 h,"[5]; pH 6.5, read-out: Solubility pH 6.5",124 µM
same,Solubility pH 7.0 (μM),"[5]; pH 7.0, 18 hours at room temperature, Table 3",198 μM
same,solubility at 18 h,"[5]; pH 7.0, Table 8, read-out: Solubility pH 7.0",198 µM
same,solubility at 18 h,"[5]; pH 7.0, read-out: Solubility pH 7.0",198 µM
same,solubility,"[5]; pH 7.5, pH 7.5, read-out: Solubility pH 7.5",> 200 µM
same,solubility,"[5]; pH 8, pH 8.0, read-out: Solubility pH 8.0",> 200 µM
